These are literature values, as cited in patent US6245768A, “1-(N'-(arylalkylaminoalkyl)) aminoisoindoles; a new class of dopamine receptor subtype specific ligands” (Neurogen Corporation, priority 1999, dated 2001).

Read-outs that look alike come from different tables or passages of the source.

Series [1] deals with D2 receptors. The conditions noted are these: related art.
For series [2], the system named is D1 dopamine receptor. The conditions noted are these: related art.

`CN1CCN(C2=Nc3cc(Cl)ccc3Nc3ccccc32)CC1` [clozapine]: for the setting “compared with classical neuroleptics, related art”, the “incidence of extrapyramidal side effects (EPS)” value is on record as “lesser incidence of extrapyramidal side effects (EPS) than classical neuroleptics”.
With `O=C(CCCN1CCC(O)(c2ccc(Cl)cc2)CC1)c1ccc(F)cc1` [haloperidol], in series [1], the “binding affinity at D2 receptors” value is “subnanomolar range”. In addition, the “binding at the D1 dopamine receptor” value in series [2] is “binds relatively weakly”.
On to `CCN1CCCC1CNC(=O)c1cc(S(N)(=O)=O)ccc1OC` (stereo not shown) [sulpiride], for which, under “in vivo”, the “incidence of extrapyramidal side effects (EPS)” value was “lesser incidence of extrapyramidal side effects (EPS) than classical neuroleptics”.
